PubChem BioAssay (NCI)
“And” between values parts separate entries of the source, which are not always exact repeats. Equal entries are not always repeated.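 Exposure lasted 48 hours, with cells grown in 96-well plates and compounds tested at five concentrations. Abbreviation: GI50, concentration required for 50% inhibition of growth. TGI: total growth inhibition.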

Experiments:
Assay in all cases: NCI anticancer screen, dose series, 48 h
A549 NSCLC = system: A549 NSCLC
SF-268 CNS = system: SF-268 CNS
A498 renal = system: A498 renal
RPMI-8226 leukemia = system: RPMI-8226 leukemia
OVCAR-3 ovarian = system: OVCAR-3 ovarian
ACHN renal = system: ACHN renal
HCC-2998 colon = system: HCC-2998 colon
SK-MEL-5 melanoma = system: SK-MEL-5 melanoma
HCT-116 colon = system: HCT-116 colon
CCRF-CEM leukemia = system: CCRF-CEM leukemia

O=Nc1ccc2ccccc2c1O
GI50 (A549 NSCLC): 6.2 µM | TGI (A549 NSCLC): 19.6 µM | GI50 (SF-268 CNS): 3.97 µM | TGI (SF-268 CNS): 13.3 µM | GI50 (A498 renal): 14.3 µM | TGI (A498 renal): 28.2 µM | GI50 (RPMI-8226 leukemia): 5.69 µM | TGI (RPMI-8226 leukemia): 31.1 µM | GI50 (OVCAR-3 ovarian): 1.9 µM | TGI (OVCAR-3 ovarian): 5.01 µM | GI50 (ACHN renal): 5.5 µM | TGI (ACHN renal): 18.4 µM | GI50 (HCC-2998 colon): 14.7 µM | TGI (HCC-2998 colon): 29.1 µM | GI50 (SK-MEL-5 melanoma): 2.71 µM | TGI (SK-MEL-5 melanoma): 8.41 µM | GI50 (HCT-116 colon): 2.6 µM | TGI (HCT-116 colon): 7.36 µM

O=C1C(=O)N(c2ccc(Cl)cc2Cl)C(=O)C(=O)C1c1nc2ccccc2o1
TGI (A549 NSCLC): > 100 µM | TGI (SF-268 CNS): > 100 µM | TGI (A498 renal): > 100 µM | TGI (CCRF-CEM leukemia): > 100 µM | TGI (RPMI-8226 leukemia): > 100 µM | TGI (OVCAR-3 ovarian): > 100 µM | TGI (ACHN renal): > 100 µM | TGI (HCC-2998 colon): > 100 µM | TGI (SK-MEL-5 melanoma): > 100 µM | TGI (HCT-116 colon): > 100 µM

COc1ccc(/C=C\c2cc(OC)c(OC)c(OC)c2)cc1OC(=O)CCC(=O)O
GI50 (A549 NSCLC): 0.157 µM | TGI (A549 NSCLC): > 100 µM | TGI (SF-268 CNS): 45.1 µM | GI50 (A498 renal): < 0.0001 µM | TGI (CCRF-CEM leukemia): > 100 µM | TGI (RPMI-8226 leukemia): > 100 µM | TGI (ACHN renal): > 100 µM | GI50 (SK-MEL-5 melanoma): < 0.0001 µM

CC(=O)CCCCO
TGI (A549 NSCLC): > 100 µM | TGI (SF-268 CNS): > 100 µM | TGI (A498 renal): > 100 µM | TGI (CCRF-CEM leukemia): > 100 µM | TGI (RPMI-8226 leukemia): > 100 µM | TGI (OVCAR-3 ovarian): > 100 µM | TGI (ACHN renal): > 100 µM | TGI (SK-MEL-5 melanoma): > 100 µM | TGI (HCT-116 colon): > 100 µM

COc1cccc(Cc2c3cc(OC)ccc3cc[n+]2C)c1
TGI (A549 NSCLC): > 100 µM | TGI (SF-268 CNS): > 100 µM | TGI (A498 renal): > 100 µM | TGI (CCRF-CEM leukemia): > 100 µM | TGI (RPMI-8226 leukemia): > 100 µM | TGI (OVCAR-3 ovarian): > 100 µM | TGI (ACHN renal): > 100 µM | TGI (HCC-2998 colon): > 100 µM | TGI (SK-MEL-5 melanoma): 65.4 µM

COc1ccccc1NC(=O)C1=C(C)NC(C)=C(C(=O)Nc2ccccc2OC)C1c1ccc(C)cc1
TGI (SF-268 CNS): > 100 µM | TGI (A498 renal): 82.7 µM | TGI (RPMI-8226 leukemia): > 100 µM | TGI (OVCAR-3 ovarian): > 100 µM | TGI (ACHN renal): > 100 µM | TGI (HCC-2998 colon): > 100 µM | TGI (SK-MEL-5 melanoma): > 100 µM | TGI (HCT-116 colon): > 100 µM

CCOC(=O)C1SC(=Nc2ccc(Cl)c(Cl)c2)N=C1C (stereo not drawn)
TGI (A549 NSCLC): > 100 µM | TGI (SF-268 CNS): > 100 µM | TGI (A498 renal): 84.3 µM | TGI (CCRF-CEM leukemia): 31.3 µM | TGI (RPMI-8226 leukemia): 56.9 µM | TGI (OVCAR-3 ovarian): 60.6 µM | TGI (ACHN renal): > 100 µM | TGI (HCC-2998 colon): > 100 µM

CCSC1=C(C)N(C=NC(C)(C)C)CC1
TGI (A549 NSCLC): > 100 µM | TGI (SF-268 CNS): > 100 µM | TGI (A498 renal): > 100 µM | TGI (CCRF-CEM leukemia): > 100 µM | TGI (OVCAR-3 ovarian): > 100 µM | TGI (ACHN renal): > 100 µM | TGI (HCC-2998 colon): > 100 µM | TGI (SK-MEL-5 melanoma): > 100 µM | TGI (HCT-116 colon): > 100 µM

Cc1ccc(-c2cc(C3=CC(=O)C=CC3=O)n(-c3ccc(S(N)(=O)=O)cc3)n2)cc1
GI50 (A549 NSCLC): > 100 µM | TGI (A549 NSCLC): > 100 µM | GI50 (SF-268 CNS): 55.3 µM | TGI (SF-268 CNS): > 100 µM | GI50 (CCRF-CEM leukemia): > 100 µM | TGI (CCRF-CEM leukemia): > 100 µM | GI50 (RPMI-8226 leukemia): 6.17 µM | TGI (RPMI-8226 leukemia): 70.2 µM | GI50 (OVCAR-3 ovarian): 44.5 µM | TGI (OVCAR-3 ovarian): > 100 µM | GI50 (ACHN renal): 42.9 µM | TGI (ACHN renal): > 100 µM | GI50 (SK-MEL-5 melanoma): 83.1 µM | TGI (SK-MEL-5 melanoma): > 100 µM | GI50 (HCT-116 colon): 17.3 µM | TGI (HCT-116 colon): 33 µM

COc1ccc2nc3cc(Cl)ccc3c(NCCCNCCC(C)O)c2c1 (stereo not drawn)
GI50 (A549 NSCLC): 0.422 µM | TGI (A549 NSCLC): 2.12 µM | GI50 (SF-268 CNS): 0.523 µM | TGI (SF-268 CNS): 2.52 µM | GI50 (A498 renal): 0.42 µM | TGI (A498 renal): 1.54 µM | GI50 (CCRF-CEM leukemia): 0.361 µM | TGI (CCRF-CEM leukemia): 2.61 µM | GI50 (RPMI-8226 leukemia): 0.575 µM | TGI (RPMI-8226 leukemia): 3.09 µM | GI50 (OVCAR-3 ovarian): 0.368 µM | TGI (OVCAR-3 ovarian): 1.68 µM | GI50 (ACHN renal): 0.192 µM | TGI (ACHN renal): 1.68 µM | GI50 (HCT-116 colon): 0.0569 µM | TGI (HCT-116 colon): 1.54 µM

NC(N)=NNC(=O)CCCCCCCC(=O)NN=C(N)N
TGI (A549 NSCLC): > 100 µM | TGI (SF-268 CNS): > 100 µM | TGI (A498 renal): > 100 µM | TGI (CCRF-CEM leukemia): > 100 µM | TGI (ACHN renal): > 100 µM | TGI (HCC-2998 colon): > 100 µM | TGI (SK-MEL-5 melanoma): > 100 µM | TGI (HCT-116 colon): > 100 µM

O=C(CC(=O)N1N=C(N2c3ccccc3Sc3ccccc32)CC1c1ccccc1)Nc1ccc(Cl)cc1 (stereo not drawn)
TGI (A549 NSCLC): > 100 µM | TGI (SF-268 CNS): > 100 µM | TGI (A498 renal): > 100 µM | TGI (OVCAR-3 ovarian): > 100 µM | TGI (ACHN renal): > 100 µM | TGI (HCC-2998 colon): > 100 µM | TGI (SK-MEL-5 melanoma): > 100 µM | TGI (HCT-116 colon): > 100 µM

C=CCC(N[C@H](CO)c1ccccc1)c1cn(C(=O)OCC)c2ccccc12 (stereo partly drawn)
GI50 (A549 NSCLC): 13.1 µM | TGI (A549 NSCLC): 27.6 µM | GI50 (SF-268 CNS): 32.1 µM | TGI (SF-268 CNS): 89.9 µM | GI50 (CCRF-CEM leukemia): 44 µM | TGI (CCRF-CEM leukemia): > 100 µM | GI50 (RPMI-8226 leukemia): 70.2 µM | TGI (RPMI-8226 leukemia): > 100 µM | GI50 (OVCAR-3 ovarian): 11.6 µM | TGI (OVCAR-3 ovarian): 25 µM | GI50 (ACHN renal): 16.1 µM | TGI (ACHN renal): 30.2 µM | GI50 (HCC-2998 colon): 15.8 µM | TGI (HCC-2998 colon): 29.6 µM | GI50 (SK-MEL-5 melanoma): 17.5 µM | TGI (SK-MEL-5 melanoma): 32.8 µM | GI50 (HCT-116 colon): 14.7 µM | TGI (HCT-116 colon): 28 µM

O=C(c1ccco1)c1c(C(F)(F)F)n([O-])c2ccccc2[n+]1=O
GI50 (A549 NSCLC): 3.18 µM | TGI (A549 NSCLC): 27.7 µM | GI50 (SF-268 CNS): 0.515 µM | TGI (SF-268 CNS): 2.56 µM | GI50 (A498 renal): 1.57 µM | TGI (A498 renal): 8.27 µM | GI50 (CCRF-CEM leukemia): 0.671 µM | TGI (CCRF-CEM leukemia): 3.71 µM | GI50 (RPMI-8226 leukemia): 0.227 µM | TGI (RPMI-8226 leukemia): 1.27 µM | GI50 (OVCAR-3 ovarian): 0.735 µM | TGI (OVCAR-3 ovarian): 3.88 µM | GI50 (ACHN renal): 0.506 µM | TGI (ACHN renal): 4.21 µM | GI50 (SK-MEL-5 melanoma): 0.999 µM | TGI (SK-MEL-5 melanoma): 3.68 µM | GI50 (HCT-116 colon): 0.434 µM | TGI (HCT-116 colon): 8.52 µM

Nc1c(C(=O)Nc2ccccc2)[n+]([O-])c2ccccc2[n+]1[O-]
TGI (A549 NSCLC): 68 µM | TGI (SF-268 CNS): > 100 µM | TGI (A498 renal): 31 µM | TGI (CCRF-CEM leukemia): > 100 µM | TGI (RPMI-8226 leukemia): > 100 µM | TGI (OVCAR-3 ovarian): 31.7 µM | TGI (ACHN renal): 30.1 µM | TGI (HCC-2998 colon): 32.2 µM | TGI (SK-MEL-5 melanoma): 29.1 µM

COc1cc2c[n+](C)c3c4ccccc4ccc3c2cc1OC (tested in a mixture with another compound)
TGI (A549 NSCLC): 39.3 µM | TGI (SF-268 CNS): 2.86 µM and 10.4 µM | GI50 (CCRF-CEM leukemia): 2.08 µM | TGI (CCRF-CEM leukemia): > 70.6 µM | GI50 (RPMI-8226 leukemia): 1.71 µM | GI50 (OVCAR-3 ovarian): 1.64 µM | TGI (OVCAR-3 ovarian): 7.41 µM and 21.4 µM | TGI (ACHN renal): > 100 µM | GI50 (HCC-2998 colon): 6.36 µM | TGI (HCC-2998 colon): 21.3 µM | GI50 (SK-MEL-5 melanoma): 7.6 µM | TGI (SK-MEL-5 melanoma): 29 µM | GI50 (HCT-116 colon): 2.55 µM | TGI (HCT-116 colon): 27.2 µM

CCN(CCCl)CCCNc1c2ccccc2nc2ccc(OC)cc12
TGI (A549 NSCLC): 1300 µM | GI50 (SF-268 CNS): 254 µM | TGI (A498 renal): 356 µM | GI50 (CCRF-CEM leukemia): 67.6 µM | GI50 (OVCAR-3 ovarian): 119 µM | TGI (ACHN renal): 1.34 µM | GI50 (HCC-2998 colon): 436 µM | GI50 (SK-MEL-5 melanoma): 626 µM | TGI (HCT-116 colon): 1.16 µM

CC(C)(C)C(=O)ON1N=NC2C3CC(OCc4ccccc4)(OCc4ccccc4)C(O3)C21 (stereo not drawn)
TGI (A549 NSCLC): > 100 µM | TGI (SF-268 CNS): 88.2 µM | TGI (A498 renal): > 100 µM | TGI (CCRF-CEM leukemia): 45.8 µM | TGI (RPMI-8226 leukemia): 49.4 µM | TGI (OVCAR-3 ovarian): 35.9 µM | TGI (ACHN renal): 91.5 µM | TGI (HCC-2998 colon): 31.2 µM | TGI (SK-MEL-5 melanoma): 31.9 µM

Cc1cc(NS(=O)(=O)c2ccc(NC(=O)c3cccc4c(Nc5ccc(S(=O)(=O)N=C(N)N)cc5)c5ccccc5nc34)cc2)no1
TGI (A549 NSCLC): > 100 µM | TGI (SF-268 CNS): > 100 µM | TGI (A498 renal): > 100 µM | TGI (RPMI-8226 leukemia): > 100 µM | TGI (OVCAR-3 ovarian): > 100 µM | TGI (ACHN renal): > 100 µM | TGI (HCC-2998 colon): > 100 µM | TGI (SK-MEL-5 melanoma): > 100 µM | TGI (HCT-116 colon): > 100 µM
